Data reported in ChEMBL document CHEMBL6153042, “Glycoconjugates of adefovir and tenofovir as asialoglycoprotein-mediated Anti-HBV prodrugs with enhanced liver targeting” (Eur J Med Chem, 2025).
One block for each compound: values may come before it.

Key:
[1] = Toxicity in Kunming mouse assessed as histopathological changes in liver at 200 mg/kg, iv once daily for 5 days by H and E staining based analysis; type: organism-based; conditions: in vivo, 120 h, time 5 day
[2] = Toxicity in Kunming mouse assessed as effect on body weight at 100 to 200 mg/kg, iv administered once daily for 5 days; type: organism-based; conditions: in vivo, 120 h, dose 100-200 mg/kg, time 5 day
LX-2 [3] = assay: Cytotoxicity against human LX2 cells at 5 uM incubated for 48 hrs by CCK8 assay; type: toxicity, cell-based; conditions: lx-2, 48 h
[4] = Toxicity in Kunming mouse assessed as maximum tolerated dose administered intravenously as once daily dose for 5 days; conditions: in vivo, route iv, time 5 day
LX-2 [5] = assay: (§1) Cytotoxicity against human LX2 cells assessed as cell growth inhibition at 10 uM incubated for 48 hrs by CCK8 assay relative to control; type: toxicity, cell-based; conditions: lx-2, 48 h, 10 µM
[6] = Cytotoxicity against human HepG2.2.15 cells assessed as inhibition of cell proliferation by CCK8 assay; type: toxicity, cell-based, HepG2 2.2.15
Hepatitis B virus = assay: Antiviral activity against Hepatitis B virus infected in human HepG2.2.15 cells assessed as inhibition of HBV DNA replication incubated for 10 day by qPCR analysis; type: functional, organism-based; conditions: HepG2.2.15, 240 h
[7] = Selectivity index, the ratio of CC50 for human HepG2.2.15 cells to EC50 for antiviral activity against HBV in human HepG2.2.15 cells assessed as inhibition of HBV DNA replication; type: toxicity, cell-based; conditions: read-out: Ratio CC50/EC50
[8] = Toxicity in Kunming mouse assessed as histopathological changes in heart at 200 mg/kg, iv once daily for 5 days by H and E staining based analysis; type: organism-based; conditions: in vivo, 120 h, time 5 day
[9] = Toxicity in Kunming mouse assessed as histopathological changes in kidney at 200 mg/kg, iv once daily for 5 days by H and E staining based analysis; type: organism-based; conditions: in vivo, 120 h, time 5 day
[10] = Stability of compound in PBS buffer assessed as half-life by high-performance liquid chromatography; type: physicochemical
[11] = Drug uptake in Sprague-Dawley rat liver at 10 mg/kg, iv measured after 1 to 6 hrs by LC-MS/MS analysis; type: ADME, organism-based; conditions: in vivo, time 1-6 hrs
[12] = Drug metabolism in plasma of Sprague-Dawley rat assessed as (1-(36-(((2R,3R,4S,5R,6R)-3-acetamido-4,5-dihydroxy-6-(hydroxymethyl)tetrahydro-2H-pyran-2-yl)oxy)-21,21-bis((3-((3-(5-(((2R,3R,4S,5R,6R)-3-acetamido-4,5-dihydroxy-6-(hydroxymethyl)tetrahydro-2H-pyran-2-yl)oxy)pentanamido)propyl)amino)-3-oxopropoxy)methyl)-16,19,26,32-tetraoxo-3,6,9,12,23-pentaoxa-15,20,27,31-tetraazahexatriacontyl)-1H-1,2,3-triazol-4-yl)methyl hydrogen ((2-(6-amino-9H-purin-9-yl)ethoxy)methyl)phosphonate formation measured at 2.1 mins by HPLC analysis; type: ADME, cell-free; conditions: 0.035 h
[13] = Toxicity in Kunming mouse assessed as effect on heart colour at 100 to 200 mg/kg, iv once daily for 5 days; type: organism-based; conditions: in vivo, 120 h, dose 100-200 mg/kg, time 5 day
[14] = Toxicity in Kunming mouse assessed as effect on liver colour at 100 to 200 mg/kg, iv once daily for 5 days; type: organism-based; conditions: in vivo, 120 h, dose 100-200 mg/kg, time 5 day
[15] = Toxicity in Kunming mouse assessed as effect on kidney colour at 100 to 200 mg/kg, iv once daily for 5 days; type: organism-based; conditions: in vivo, 120 h, dose 100-200 mg/kg, time 5 day
[16] = Toxicity in Kunming mouse assessed as effect on heart size at 100 to 200 mg/kg, iv once daily for 5 days; type: organism-based; conditions: in vivo, 120 h, dose 100-200 mg/kg, time 5 day
[17] = Toxicity in Kunming mouse assessed as effect on liver size at 100 to 200 mg/kg, iv once daily for 5 days; type: organism-based; conditions: in vivo, 120 h, dose 100-200 mg/kg, time 5 day
[18] = Toxicity in Kunming mouse assessed as effect on kidney size at 100 to 200 mg/kg, iv once daily for 5 days; type: organism-based; conditions: in vivo, 120 h, dose 100-200 mg/kg, time 5 day
[19] = Toxicity in Kunming mouse assessed as effect on heart weight at 100 to 200 mg/kg, iv once daily for 5 days; type: organism-based; conditions: in vivo, 120 h, dose 100-200 mg/kg, time 5 day
[20] = Toxicity in Kunming mouse assessed as effect on liver weight at 100 to 200 mg/kg, iv once daily for 5 days; type: organism-based; conditions: in vivo, 120 h, dose 100-200 mg/kg, time 5 day
[21] = Toxicity in Kunming mouse assessed as effect on kidney weight at 100 to 200 mg/kg, iv once daily for 5 days; type: organism-based; conditions: in vivo, 120 h, dose 100-200 mg/kg, time 5 day
[22] = Drug metabolism in plasma of Sprague-Dawley rat assessed as hydrolyzed metabolite formation measured after 5 hrs by HPLC analysis; type: ADME, cell-free
[23] = Prodrug release in human HepG2 cells assessed as adefovir release measured over 1 hrs by HPLC analysis; type: ADME, cell-based; conditions: hepg2, 1 h
[24] = Prodrug release in human HepG2 cells assessed as tenofovir release measured over 1 hrs by HPLC analysis; type: ADME, cell-based; conditions: hepg2, 1 h
[25] = Prodrug release in human HepG2 cells assessed as adefovir release by mass spectrometric analysis; type: ADME, cell-based
[26] = Prodrug release in human HepG2 cells assessed as tenofovir release by mass spectrometric analysis; type: ADME, cell-based
[27] = as §1; type: toxicity, cell-based, LX-2; conditions: LX2 cells, read-out: GI
[28] = Drug uptake in Sprague-Dawley rat kidney at 10 mg/kg, iv measured after 1 to 6 hrs by LC-MS/MS analysis; type: ADME, organism-based; conditions: in vivo, time 1-6 hrs

Structure (SMILES): CC(=O)N[C@H]1[C@H](OCCCCC(=O)NCCCNC(=O)CCOCC(COCCC(=O)NCCCNC(=O)CCCCO[C@@H]2O[C@H](CO)[C@H](O)[C@@H](O)[C@H]2NC(C)=O)(COCCC(=O)NCCCNC(=O)CCCCO[C@@H]2O[C@H](CO)[C@H](O)[C@@H](O)[C@H]2NC(C)=O)NC(=O)CCC(=O)NCCOCCOCCOCCOCCn2cc(COP(=O)(COCCn3cnc4c(N)ncnc43)OCOC(=O)C(C)(C)C)nn2)O[C@H](CO)[C@H](O)[C@H]1O (some centres undefined)
Activity [1]: Non-toxic | Activity [2]: Non-toxic | Activity (LX-2 [3]): Toxic | MTD at 120 h [4]: ~200 mg/kg | Activity (LX-2 [5]): Toxic | CC50 [6]: > 100 µM | EC50 (Hepatitis B virus): 98.3 nM | selectivity ratio [7]: > 1020 | Activity [8]: Non-toxic | Activity [9]: Non-toxic | half-life [10]: > 1440 min | Drug uptake [11]: Active | Drug metabolism [12]: metabolite_detected | Activity [13]: Non-toxic | Activity [14]: Non-toxic | Activity [15]: Non-toxic | Activity [16]: Non-toxic | Activity [17]: Non-toxic | Activity [18]: Non-toxic | Activity [19]: Non-toxic | Activity [20]: Non-toxic | Activity [21]: Non-toxic

Structure (SMILES): CC(=O)N[C@H]1[C@H](OCCCCC(=O)NCCCNC(=O)CCOCC(COCCC(=O)NCCCNC(=O)CCCCO[C@@H]2O[C@H](CO)[C@H](O)[C@@H](O)[C@H]2NC(C)=O)(COCCC(=O)NCCCNC(=O)CCCCO[C@@H]2O[C@H](CO)[C@H](O)[C@@H](O)[C@H]2NC(C)=O)NC(=O)CCC(=O)NCCOCCOCCOCCOCCn2cc(COP(=O)(O)CO[C@H](C)Cn3cnc4c(N)ncnc43)nn2)O[C@H](CO)[C@H](O)[C@H]1O (racemic)
Drug metabolism [22]: metabolite_notdetected | Drug metabolism [23]: metabolite_detected | Drug metabolism [24]: metabolite_detected | Drug metabolism [25]: metabolite_detected | Drug metabolism [26]: metabolite_detected

EC50 (Hepatitis B virus): 240 nM | Drug uptake [28]: Active
Structure (SMILES): CC(C)(C)C(=O)OCOP(=O)(COCCn1cnc2c(N)ncnc21)OCOC(=O)C(C)(C)C [ADEFOVIR DIPIVOXIL]
Activity (LX-2 [3]): Non-toxic | inhibition at 48 h, 10 µM [27]: ~30% | CC50 [6]: 10.7 µM | selectivity ratio [7]: 44.6

Structure (SMILES): CC(C)OC(=O)OCOP(=O)(CO[C@H](C)Cn1cnc2c(N)ncnc21)OCOC(=O)OC(C)C.O=C(O)/C=C/C(=O)O [TENOFOVIR DISOPROXIL FUMARATE]
Activity (LX-2 [3]): Non-toxic | inhibition at 48 h, 10 µM [27]: ~30% | CC50 [6]: 8.2 µM | EC50 (Hepatitis B virus): 188 nM | selectivity ratio [7]: 43.7 | Drug uptake [28]: Active
